Measurements: patent publication US7560458B2, “Triazolopyrimidine derivatives as glycogen synthase kinase 3 inhibitors” (Janssen Pharmaceutica, N.V., priority 2003, dated 2009)

How the values were obtained:
GSK3β = GSK3β (Homo sapiens, UniProt P49841); test: GSK3beta assay (SPA, biotinylated phosphorylated CREB peptide, ATP-P33); assay type: biochemical; details: −log IC50 (M); given as ranges (>8; 7-8; <7); read-out: pIC50 (GSK3beta) (converted)
Procedure: (§1) GSK3beta assays were performed at room temperature in a 100 μl reaction volume of 25 mM Tris (ph 7.4) containing 10 mM MgCl2.6H2O 1 mM DTT, 0.1 mg/ml BSA, 5% glyceol and containing 5.7 ng/μl GSK3β, 5 μM biotinylated phosphorylated CREB peptide, 1 μM APT, 0.85 μCi/ml ATP-P^33 and a suitable amount of a test compound of formula (I). After one hour, the reaction was terminated by adding 70 μl of Stop mix (0.1 mM APT, 5 mg/ml streptavidin coated PVT SPA bead pH 11.0). The beads to which the phosphorylated CREB peptide is attached were allowed to settle overnight and the radioactivity of the beads was counted in a microtiterplate scintillation counter and compared with the results obtained in a control experiment (without the presence of a test compound) in order to determine the percentage of GSK3β inhibition. The IC50 value, i.e. the concentration (M) of the test compound at which 50% of GSK3β is inhibited, was calculated from the dose response curve obtained by performing the above-described GSKK3β assay in the presence of different amounts of the test compound.

GSK3alpha = GSK3alpha (Homo sapiens, UniProt P49840); test: GSK3alpha assay (same as the GSK3beta assay, GSK3alpha 0.25 ng/μl); assay type: biochemical; details: −log IC50 (M); given as ranges (>8; 7-8; <7); read-out: pIC50 (GSK3alpha) (converted)
GSK3alpha, sequence (P49840 whole entry, species assumed): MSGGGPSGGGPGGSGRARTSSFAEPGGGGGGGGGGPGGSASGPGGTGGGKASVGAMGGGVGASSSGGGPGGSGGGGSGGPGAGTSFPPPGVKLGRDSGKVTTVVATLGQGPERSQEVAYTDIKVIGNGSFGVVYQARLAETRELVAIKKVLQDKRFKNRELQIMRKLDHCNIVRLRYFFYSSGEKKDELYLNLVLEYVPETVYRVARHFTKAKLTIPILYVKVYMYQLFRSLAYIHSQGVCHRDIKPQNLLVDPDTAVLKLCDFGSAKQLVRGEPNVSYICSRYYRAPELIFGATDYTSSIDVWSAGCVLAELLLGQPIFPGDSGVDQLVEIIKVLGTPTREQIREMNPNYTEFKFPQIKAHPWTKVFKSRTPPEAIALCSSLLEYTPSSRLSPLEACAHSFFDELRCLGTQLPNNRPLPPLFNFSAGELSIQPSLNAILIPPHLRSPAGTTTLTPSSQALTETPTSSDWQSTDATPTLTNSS
Procedure: as §1
The GSK3alpha assay was performed in the same way as described above for the GSK3beta assay except for the concentration of GSK3alpha which is 0.25 ng/μl.

GSK3β, sequence (P49841 whole entry, species assumed): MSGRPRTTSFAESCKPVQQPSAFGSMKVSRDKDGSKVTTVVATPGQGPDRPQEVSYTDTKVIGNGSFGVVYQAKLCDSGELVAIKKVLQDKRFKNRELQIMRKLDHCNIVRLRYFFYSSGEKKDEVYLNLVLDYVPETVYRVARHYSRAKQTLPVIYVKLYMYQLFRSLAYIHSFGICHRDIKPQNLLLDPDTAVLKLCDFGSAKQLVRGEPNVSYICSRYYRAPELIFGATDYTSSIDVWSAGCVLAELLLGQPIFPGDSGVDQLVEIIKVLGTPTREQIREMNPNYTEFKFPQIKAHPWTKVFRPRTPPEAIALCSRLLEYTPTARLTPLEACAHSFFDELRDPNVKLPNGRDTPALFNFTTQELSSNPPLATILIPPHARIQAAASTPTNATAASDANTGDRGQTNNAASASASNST

Row | SMILES | IC50 (GSK3β) | IC50 (GSK3alpha)
1 | N#CCc1ccc(Nc2ncc3nnn(-c4cccc(F)c4)c3n2)cc1 [Compound 20] | 1e-08 to 1e-07 M | < 1e-08 M
2 | CC(=O)NCc1cccc(-n2nnc3cnc(Nc4cccc(C(C)=O)c4)nc32)c1 [Compound 111] | < 1e-08 M | < 1e-08 M
3 | NC(=O)CNC(=O)c1cccc(Nc2ncc3nnn(-c4cccc(F)c4)c3n2)c1 [Compound 89] | < 1e-08 M | < 1e-08 M
4 | CC(=O)NCc1cccc(Nc2ncc3nnn(-c4cccc(CNC(C)=O)c4)c3n2)c1 [Compound 108] | < 1e-08 M | < 1e-08 M
5 | N#Cc1cccc(Nc2ncc3nnn(-c4cccc(Br)c4)c3n2)c1 [Compound 33] | < 1e-08 M | < 1e-08 M
6 | CNS(=O)(=O)c1cccc(Nc2ncc3nnn(-c4cccc(CNC(C)=O)c4)c3n2)c1 [Compound 140] | < 1e-08 M | < 1e-08 M
7 | COCC(=O)NCc1cccc(-n2nnc3cnc(Nc4ccc(C(=O)O)cc4)nc32)c1 [Compound 155] | 1e-08 to 1e-07 M | < 1e-08 M
8 | COCc1cccc(-n2nnc3cnc(Nc4cccc(C(C)O)c4)nc32)c1 (stereo not drawn) [Compound 143] | < 1e-08 M | < 1e-08 M
9 | NC(=O)Cc1cccc(Nc2ncc3nnn(-c4cccc(F)c4)c3n2)c1 [Compound 153] | < 1e-08 M | < 1e-08 M
10 | COCc1cccc(-n2nnc3cnc(Nc4cccc(CNC(C)=O)c4)nc32)c1 [Compound 80] | < 1e-08 M | < 1e-08 M
11 | O=C(O)c1cccc(Nc2ncc3nnn(-c4cccc(F)c4)c3n2)c1 [Compound 29] | 1e-08 to 1e-07 M | < 1e-08 M
12 | COCc1cccc(-n2nnc3cnc(Nc4cccc(S(C)(=O)=O)c4)nc32)c1 [Compound 96] | 1e-08 to 1e-07 M | 1e-08 to 1e-07 M
13 | CC(=O)c1cccc(Nc2ncc3nnn(-c4cccc(S(N)(=O)=O)c4)c3n2)c1 [Compound 64] | < 1e-08 M | < 1e-08 M
14 | CC(=O)NCc1cccc(Nc2ncc3nnn(-c4ccccc4)c3n2)c1 [Compound 75] | 1e-08 to 1e-07 M | < 1e-08 M
15 | O=C(O)c1ccc(Nc2ncc3nnn(-c4cccc(F)c4)c3n2)cc1O [Compound 136] | < 1e-08 M | < 1e-08 M
16 | CC(=O)NCc1cccc(-n2nnc3cnc(Nc4cccc(NC(C)=O)c4)nc32)c1 [Compound 109] | < 1e-08 M | < 1e-08 M
17 | CC(=O)NCc1cccc(-n2nnc3cnc(Nc4cccc(C#N)c4)nc32)c1 [Compound 107] | < 1e-08 M | < 1e-08 M

Row | SMILES | IC50 (GSK3β) | IC50 (GSK3alpha)
18 | N#CSc1ccc(Nc2ncc3nnn(-c4cccc(F)c4)c3n2)cc1 [Compound 18] | 1e-08 to 1e-07 M | 1e-08 to 1e-07 M
19 | OCCc1cccc(Nc2ncc3nnn(-c4cccc(F)c4)c3n2)c1 [Compound 150] | < 1e-08 M | < 1e-08 M
20 | CC(=O)NCc1cccc(Nc2ncc3nnn(-c4cccc(F)c4)c3n2)c1 [Compound 73] | < 1e-08 M | < 1e-08 M
21 | COCc1cccc(-n2nnc3cnc(Nc4cccc(NS(C)(=O)=O)c4)nc32)c1 [Compound 84] | < 1e-08 M | < 1e-08 M
22 | CCOc1cccc(Nc2ncc3nnn(-c4cccc(F)c4)c3n2)c1 [Compound 23] | < 1e-08 M | < 1e-08 M
23 | OCc1cccc(Nc2ncc3nnn(-c4cccc(CO)c4)c3n2)c1 [Compound 54] | < 1e-08 M | < 1e-08 M
24 | NC(=O)c1cccc(Nc2ncc3nnn(-c4ccccc4)c3n2)c1 [Compound 38] | < 1e-08 M | < 1e-08 M
25 | COCc1cccc(-n2nnc3cnc(Nc4cccc(C(=O)NCCNC(C)=O)c4)nc32)c1 [Compound 149] | 1e-08 to 1e-07 M | < 1e-08 M
26 | Cc1ccc(Nc2ncc3nnn(-c4cccc(F)c4)c3n2)cc1O [Compound 21] | < 1e-08 M | < 1e-08 M
27 | CC(=O)Nc1ccc(Nc2ncc3nnn(-c4ccccc4)c3n2)cn1 [Compound 83] | 1e-08 to 1e-07 M | 1e-08 to 1e-07 M
28 | COc1cccc(-n2nnc3cnc(Nc4cccc(C(=O)O)c4)nc32)c1 [Compound 66] | 1e-08 to 1e-07 M | 1e-08 to 1e-07 M
29 | COCc1cccc(-n2nnc3cnc(Nc4ccc(S(N)(=O)=O)cc4)nc32)c1 [Compound 146] | < 1e-08 M | < 1e-08 M
30 | Fc1cccc(-n2nnc3cnc(Nc4ccc(Cl)nc4)nc32)c1 [Compound 32] | < 1e-08 M | < 1e-08 M
31 | COCC(=O)NCc1cccc(-n2nnc3cnc(Nc4cccc(NS(C)(=O)=O)c4)nc32)c1 [Compound 158] | < 1e-08 M | < 1e-08 M
32 | CSc1cccc(Nc2ncc3nnn(-c4cccc(F)c4)c3n2)c1 [Compound 122] | < 1e-08 M | < 1e-08 M
33 | Fc1cccc(-n2nnc3cnc(Nc4ccc(OC(F)F)cc4)nc32)c1 [Compound 19] | 1e-08 to 1e-07 M | < 1e-08 M

More lines, now with the values ahead:

Row | IC50 (GSK3β) | IC50 (GSK3alpha) | SMILES
34 | < 1e-08 M | < 1e-08 M | NC(=O)Cc1cccc(-n2nnc3cnc(Nc4cccc(C(=O)NCCO)c4)nc32)c1 [Compound 271]
35 | < 1e-08 M | < 1e-08 M | OCCc1cccc(Nc2ncc3nnn(-c4cccc(CCO)c4)c3n2)c1 [Compound 172]
36 | < 1e-08 M | < 1e-08 M | COCc1cccc(Nc2ncc3nnn(-c4cccc(CC#N)c4)c3n2)c1 [Compound 266]
37 | < 1e-08 M | < 1e-08 M | CS(=O)(=O)Nc1cccc(Nc2ncc3nnn(-c4cccc(CC(N)=O)c4)c3n2)c1 [Compound 273]
38 | < 1e-08 M | < 1e-08 M | N#Cc1ccc(Nc2ncc3nnn(-c4cccc(CCO)c4)c3n2)cc1 [Compound 285]
39 | < 1e-08 M | < 1e-08 M | CNC(=O)c1ccc(Nc2ncc3nnn(-c4cccc(CCO)c4)c3n2)cc1 [Compound 329]
40 | 1e-08 to 1e-07 M | 1e-08 M | NC(=O)c1ccc(Nc2ncc3nnn(-c4cccc(CNC(=O)C56CC7CC(CC(C7)C5)C6)c4)c3n2)cc1 [Compound 237]
41 | < 1e-08 M | < 1e-08 M | COCC(=O)NCc1cccc(-n2nnc3cnc(Nc4cccc(C#N)c4)nc32)c1 [Compound 175]
42 | < 1e-08 M | < 1e-08 M | O=C(O)CNC(=O)c1ccc(Nc2ncc3nnn(-c4cccc(CNC(=O)C5CC5)c4)c3n2)cc1 [Compound 205]
43 | < 1e-08 M | < 1e-08 M | NC(=O)Cc1cccc(-n2nnc3cnc(Nc4ccc(F)cc4)nc32)c1 [Compound 254]
44 | < 1e-08 M | < 1e-08 M | CC(C)CC(=O)NCc1cccc(-n2nnc3cnc(Nc4ccc(C(N)=O)cc4)nc32)c1 [Compound 191]
45 | < 1e-08 M | < 1e-08 M | O=C(O)c1ccc(Nc2ncc3nnn(-c4cccc(CCO)c4)c3n2)cc1 [Compound 257]
46 | < 1e-08 M | < 1e-08 M | COCc1cccc(Nc2ncc3nnn(-c4cccc(CCO)c4)c3n2)c1 [Compound 168]
47 | < 1e-08 M | < 1e-08 M | COCCOCc1cccc(-n2nnc3cnc(Nc4ccc(C(=O)N(C)C)cc4)nc32)c1 [Compound 328]
48 | < 1e-08 M | < 1e-08 M | N#CCc1cccc(-n2nnc3cnc(Nc4ccc(CCN)cc4)nc32)c1 [Compound 317]
49 | 1e-08 to 1e-07 M | 1e-08 to 1e-07 M | COCCOc1cccc(-n2nnc3cnc(Nc4ccc(Cl)cc4)nc32)c1 [Compound 335]
50 | < 1e-08 M | < 1e-08 M | CCOC(=O)NCc1cccc(-n2nnc3cnc(Nc4cccc(C#N)c4)nc32)c1 [Compound 214]
51 | < 1e-08 M | < 1e-08 M | N#CCc1cccc(-n2nnc3cnc(Nc4cccc(C(=O)NCCO)c4)nc32)c1 [Compound 275]
52 | < 1e-08 M | < 1e-08 M | COCc1cccc(-n2nnc3cnc(Nc4ccc(C(=O)O)c(C)c4)nc32)c1 [Compound 249]
53 | < 1e-08 M | < 1e-08 M | NC(=O)c1cccc(-n2nnc3cnc(Nc4ccc(C(=O)O)cc4)nc32)c1 [Compound 228]
54 | 1e-08 to 1e-07 M | < 1e-08 M | CC(C)CC(=O)NCc1cccc(-n2nnc3cnc(Nc4cccc(C(=O)NCCO)c4)nc32)c1 [Compound 186]
55 | 1e-08 to 1e-07 M | 1e-08 to 1e-07 M | COCc1cccc(-n2nnc3cnc(Nc4ccc(CCN)cc4)nc32)c1 [Compound 320]
56 | 1e-08 M | < 1e-08 M | NCc1ccc(Nc2ncc3nnn(-c4cccc(F)c4)c3n2)cc1 [Compound 295]
57 | < 1e-08 M | < 1e-08 M | N#CCc1cccc(-n2nnc3cnc(Nc4ccc(CN)cc4)nc32)c1 [Compound 313]
58 | < 1e-08 M | < 1e-08 M | COC(=O)c1cc(Nc2ncc3nnn(-c4cccc(CC#N)c4)c3n2)ccc1NC(C)=O [Compound 269]
59 | < 1e-08 M | < 1e-08 M | N#CCc1cccc(-n2nnc3cnc(Nc4ccc(CCO)cc4)nc32)c1 [Compound 268]
60 | 1e-08 to 1e-07 M | 1e-08 to 1e-07 M | O=C(O)Cc1ccc(Nc2ncc3nnn(-c4cccc(CNC(=O)C56CC7CC(CC(C7)C5)C6)c4)c3n2)cc1 [Compound 240]
61 | < 1e-08 M | < 1e-08 M | NC(=O)c1ccc(Nc2ncc3nnn(-c4cccc(CCO)c4)c3n2)cc1 [Compound 259]
62 | < 1e-08 M | < 1e-08 M | CCOc1cc(Nc2ncc3nnn(-c4cccc(CCO)c4)c3n2)ccc1C(=O)O [Compound 255]
63 | < 1e-08 M | < 1e-08 M | COCc1cccc(-n2nnc3cnc(Nc4ccc(C(=O)N(C)C)cc4)nc32)c1 [Compound 334]
